# How the values were obtained:
# HepG2 (Liver) = assay: MTT cell proliferation and viability assay on liver HEPG2 cancer cell line; type: cell-based; conditions: Homo sapiens, 48 hours, read-out: IC50 cytotoxic activity
# Procedure: In the following examples, human cancer cell line HepG2 (Liver) was grown in DMEM media supplemented with 10% bovine serum, 1× penicillin-streptomycin (Sigma-Aldrich) at 37° C. in a humidified chamber with 5% CO2. 5-Flurourasil (Sigma-Aldrich) was used as the reference drug (standard).
# Cells were seeded (1×10^5 cells/well in triplicate) in a 96-well flat-bottom plate (Becton-Dickinson Lab ware) a day before treatment and grown. Stocks of all extracts/compounds (1.0 mg/ml) were made with 5% DMSO (Sigma-Aldrich), and further working solutions (100 μg/ml) were prepared in serum-free culture media. Cells were treated with four different doses (2, 6.2, 12.5, and 25 μg/ml; in triplicate) of the compounds in complete growth media, including reference drug, and further incubated for 48 hours.
# On day 2 of treatment, cell proliferation and viability test was performed using TACS MTT Cell Proliferation and Viability Assay Kit (TACS), as per manufacturer's instructions. The relationship between surviving fraction and compound concentration was plotted to obtain the survival curve of cancer cell lines. The response parameter calculated was the IC50 value, which corresponds to the concentration required for 50% inhibition of cell viability.
# [1] = Effect on biochemical parameters in mice serum; type: in vivo; conditions: single i.p. 12 mg/kg, blood after 7 days; for Albumin / Bilirubin / Cholestrol / Creatinine / Globulin / Total Lipids / Triglycerides / Alanine amino transferase ALT / Alkaline phosphatase ALP / Aspartate amino transferase AST: Mean + S.D.; for Alanine amino transferase ALT / Alkaline phosphatase ALP / Aspartate amino transferase AST: 12 mg/kg
# From the text: Male albino mice, weighing 18-20 g each, were used in a study. The mice were divided into three main groups, as follows. Group 1 is the untreated control group (5 mice); Group 2 is divided into two subgroups (5 mice in each subgroup), treated with either 5-FU (5-Fluorouracil) or DOX (Doxorubicin) as reference anticancer drugs. Group 3 is divided into ten subgroups (5 mice for each subgroup) and treated with the present substituted naphthyridinyl hydrazine compounds. The mice were housed in wide cages and well aerated rooms, and fed standard diets and clean water. Blood collection from the animals was done with heparinized cannula, and the mice were left alive.
# For treatment, in Group 1, each mouse was given a single intraperitoneal (i.p.) injection of 0.1 mL DMSO; in Group 2, each mouse was given a single i.p. injection of 0.1 mL containing 12 mg/kg body weight of 5-FU or DOX dissolved in sterile water; and in Group 3, each mouse was given a single intraperitoneal injection of 0.1 mL containing 12 mg/kg body weight of the selected furan derivatives dissolved in 0.01% DMSO. Blood was collected after 7 days from all mouse groups.
# The biochemical effects of formula 1 compounds on some liver enzymes in mouse blood serum was studied. Effects on aspartate and alanine aminotransferases (AST and ALT), and alkaline phosphatase (ALP), were examined using a blood auto analyzer, Olympus AV 400, Japan. Moreover, albumin, globulins, creatinine, total lipids, cholesterol, triglycerides, and bilirubin were evaluated, in comparison to treatment using 5-FU or DOX. Statistical analysis of the results was performed using Chi-square values (SPSS computer program).
# [2] = tested on: various human cancer cell lines; assay: Single-dose screening against a variety of human cancer cell lines; type: cell-based; conditions: leukemia, non-small cell lung, colon, CNS, melanoma, ovarian, renal, prostate, breast cancer cell lines
# From the text: FIGS. 5A and 5B are a chart showing results of single-dose screening for various human cancer cell lines treated with compound 6 (a substituted naphthyridinyl hydrazine according to the present invention).
# HeLa cells = assay: Phase contrast microscopy of morphological changes in HeLa cells; type: cell-based; conditions: after 12 and 24 hrs
# Procedure: B. Similar studies were done with HeLa cells. Cells were seeded in 6-well plates and allowed to adhere at 37° C. in CO2 incubator. After 24 h, each well was treated with 4.6 μM 2,6P-OLA and incubated for the indicated time. After 12 and 24 h, the cells were imaged by phase contrast microscope (Olympus CLX 41) to visualize morphological changes in HeLa cells.
# B. Change in LeLa cells after treatment with compound 6 was also studied for morphological variations using the phase contrast microscopy.
# HepG2 cells = assay: Phase contrast microscopy of morphological changes in HepG2 cells; type: cell-based, human; conditions: for Morphological changes of HepG2 cells: 10 μg
# Procedure: (§1) The cells were seeded in 6-well plates and allowed to adhere at 37° C. in a CO2 incubator. After 24 h, each well was treated with 10 μg compound and incubated for the indicated time. After 24 and 48 hrs, the cells were imaged by phase contrast microscope (Olympus CLX 41) to visualize morphological changes in HepG2 cells.
# as §1, with “A. The” for “The”, “in” for “in a”, “μg of” for “μg”, “compound 6” for “compound”
# A. Change in HepG2 cells after treatment with compound 6 was studied for morphological variations using the phase contrast microscopy.
# Many characteristic features occur in cells undergoing a series of biochemical events during apoptosis. Various morphological changes, such as blebbing, loss of membrane asymmetry, cell shrinkage, nuclear fragmentation, chromatin condensation, and chromosomal DNA fragmentation occur.
A/G ratio [1],Albumin [1] [mg/d1],Bilirubin [1] [mg/dL],Cholestrol [1] [mg/dL],Creatinine [1] [mg/dL],Globulin [1] [mg/dL],Total Lipids [1] [mg/dL],Triglycerides [1] [mg/dL],melting point [°C],Compound,IC50 (HepG2 (Liver)) [µg/mL],Alanine amino transferase ALT [1] [IU/ml],Alkaline phosphatase ALP [1] [k.k./dl],Aspartate amino transferase AST [1] [IU/ml],other results
–,–,–,–,–,–,–,–,> 300,"Cc1ccc2c(N/N=C3\C(=O)Nc4ccc(Cl)cc43)cc(C)nc2n1 [Compound 8c, (3Z)-5-Chloro-3-[2-(2,7-dimethyl-1,8-naphthyridin-4-yl)hydrazinylidene]-1,3-dihydro-2H-indol-2-one]",–,–,–,–,–
–,–,–,–,–,–,–,–,> 300,"Cc1ccc2c(N/N=C3\C(=O)Nc4ccccc43)cc(C)nc2n1 [Compound 8b, (3Z)-3-[2-(2,7-Dimethyl-1,8-naphthyridin-4-yl)hydrazinylidene]-1,3-dihydro-2H-indol-2-one]",–,–,–,–,–

# The next lines start with the compound.
Compound,A/G ratio [1],Albumin [1] [mg/d1],Bilirubin [1] [mg/dL],Cholestrol [1] [mg/dL],Creatinine [1] [mg/dL],Globulin [1] [mg/dL],Total Lipids [1] [mg/dL],Triglycerides [1] [mg/dL],melting point [°C],IC50 (HepG2 (Liver)) [µg/mL],Alanine amino transferase ALT [1] [IU/ml],Alkaline phosphatase ALP [1] [k.k./dl],Aspartate amino transferase AST [1] [IU/ml],other results
COc1cccc2c1C(=O)c1c(O)c3c(c(O)c1C2=O)C[C@@](O)(C(=O)CO)C[C@@H]3O[C@H]1C[C@H](N)[C@H](O)[C@H](C)O1 [Doxorubicin],1.078,6.37 ± 0.85,0.81 ± 0.19,109.3 ± 14.2,0.78 ± 0.04,5.91 ± 0.63,21.94 ± 3.4,137.8 ± 17.10,–,3.56,59.26 ± 12.03,30.31 ± 5.14,147.22,Alanine amino transferase ALT ([1]; listed as DOX): significantly higher; Alkaline phosphatase ALP ([1]; listed as DOX): significantly increased; Aspartate amino transferase AST ([1]; listed as DOX): significantly higher
"O=c1[nH]cc(F)c(=O)[nH]1 [Compound 5-FU, 5-Fluorouracil]",1.13,6.49 ± 0.92,0.75 ± 0.10,105.9 ± 11.7,0.81 ± 0.06,5.75 ± 0.8,378.2 ± 31.4,126.5 ± 19.4,–,5,–,–,–,–
"Cc1ccc2c(N/N=C/c3ccccc3[N+](=O)[O-])cc(C)nc2n1 [Compound 6, (E)-2-(2-Nitrobenzylidene)-1-(2,7-dimethyl-1,8-naphthyridin-5-yl)hydrazine]",1.23,7.73 ± 0.52,0.76 ± 0.15,93.24 ± 19.53,0.71 ± 0.21,6.25 ± 0.82,326.32 ± 19.3,110.54 ± 17.8,255 to 256,0.885,46.09 ± 6.13,21.59 ± 3.42,112.81 ± 9.88,"Cancer cell growth in single-dose screening [2]: significant decreases in cancer cell growth; Morphological variations of HeLa cells (HeLa cells): Changes in surface morphology were observed; Alanine amino transferase ALT ([1]; listed as new compound): non-significant (n.s.) or slightly higher; Alkaline phosphatase ALP ([1]; listed as new compound): no significant changes; Aspartate amino transferase AST ([1]; listed as new compound): non-significant (n.s.) or slightly higher; Morphological changes of HepG2 cells (HepG2 cells; 24 hours, FIG. 7B): onset of apoptotic characteristics; Morphological changes of HepG2 cells (HepG2 cells; 48 hours, FIG. 7C): blebbing and loss of basal attachment and membrane asymmetry is markedly seen; Morphological variations of HepG2 cells (HepG2 cells; after 24 and 48 hrs, phase contrast microscopy): Changes in surface morphology"

# Reference: patent publication US9855255B1, “Substituted naphthyridinyl hydrazines as anti-liver cancer agents” (KING SAUD UNIVERSITY, priority 2017, dated 2018)
